Test results taken from ChEMBL document CHEMBL3885881, “DrugMatrix”.

Species: Rattus norvegicus
Assay: DrugMatrix - Regimen: Daily Repeat
Assay type: toxicity, organism-based, Sprague-Dawley
Parameters: regimen Daily Repeat, gender Male, age 6-8 weeks
Settings: in vivo, iv, 31 mg/kg, dose level Low, vehicle 100 % SALINE; for ABSOLUTE BASOPHIL / ABSOLUTE EOSINOPHIL / ABSOLUTE LYMPHOCYTE / ABSOLUTE MONOCYTE / ABSOLUTE SEGMENTED NEUTROPHIL / BASOPHIL / EOSINOPHIL / ERYTHROCYTE COUNT / HEMATOCRIT / HEMOGLOBIN / LEUKOCYTE COUNT / LYMPHOCYTE / MEAN CORPUSCULAR HEMOGLOBIN / MEAN CORPUSCULAR HEMOGLOBIN CONCENTRATION / MEAN CORPUSCULAR VOLUME / MONOCYTE / NEUTROPHIL / NUCLEATED RED BLOOD CELLS / PLATELET COUNT: tissue Blood; for ALANINE AMINOTRANSFERASE / ALBUMIN / ALKALINE PHOSPHATASE / ASPARTATE AMINOTRANSFERASE / BLOOD UREA NITROGEN / CARBON DIOXIDE / CHLORIDE / CHOLESTEROL / CREATINE PHOSPHOKINASE / CREATININE / GLUCOSE / LACTATE DEHYDROGENASE / LIPASE / PHOSPHORUS / POTASSIUM / SODIUM / TOTAL BILIRUBIN / TOTAL PROTEIN / URIC ACID: tissue Plasma

Compound: Cc1cn[nH]c1 [FOMEPIZOLE]
- ABSOLUTE BASOPHIL (72 h, time 3 day): 0 CELLS/uL
- ABSOLUTE EOSINOPHIL (72 h, time 3 day): 41 CELLS/uL
- ABSOLUTE LYMPHOCYTE (72 h, time 3 day): 12783.33 CELLS/uL
- ABSOLUTE MONOCYTE (72 h, time 3 day): 137 CELLS/uL
- ABSOLUTE SEGMENTED NEUTROPHIL (72 h, time 3 day): 738.67 CELLS/uL
- BASOPHIL (72 h, time 3 day): 0%
- EOSINOPHIL (72 h, time 3 day): 0.33%
- ERYTHROCYTE COUNT (72 h, time 3 day): 5.82 x10E6/uL
- HEMATOCRIT (72 h, time 3 day): 35.33%
- HEMOGLOBIN (72 h, time 3 day): 13.87 G/DL
- LEUKOCYTE COUNT (72 h, time 3 day): 13.7 x10E3/uL
- LYMPHOCYTE (72 h, time 3 day): 93.33%
- MEAN CORPUSCULAR HEMOGLOBIN (72 h, time 3 day): 23.83 pg
- MEAN CORPUSCULAR HEMOGLOBIN CONCENTRATION (72 h, time 3 day): 39.27 G/DL
- MEAN CORPUSCULAR VOLUME (72 h, time 3 day): 60.67 fL
- MONOCYTE (72 h, time 3 day): 1%
- NEUTROPHIL (72 h, time 3 day): 5.33%
- NUCLEATED RED BLOOD CELLS (72 h, time 3 day): 0 /100WBC
- PLATELET COUNT (72 h, time 3 day): 1326.67 x10E3/uL
- ALANINE AMINOTRANSFERASE (72 h, time 3 day): 46.33 u/L
- ALBUMIN (72 h, time 3 day): 4.27 G/DL
- ALKALINE PHOSPHATASE (72 h, time 3 day): 429.67 u/L
- ASPARTATE AMINOTRANSFERASE (72 h, time 3 day): 79 u/L
- BLOOD UREA NITROGEN (72 h, time 3 day): 14.67 mg/dL
- CARBON DIOXIDE (72 h, time 3 day): 23.67 mmol/L
- CHLORIDE (72 h, time 3 day): 103.67 MEQ/L
- CHOLESTEROL (72 h, time 3 day): 67.67 mg/dL
- CREATINE PHOSPHOKINASE (72 h, time 3 day): 240.33 u/L
- CREATININE (72 h, time 3 day): 0.15 mg/dL
- GLUCOSE (72 h, time 3 day): 166.33 mg/dL
- LACTATE DEHYDROGENASE (72 h, time 3 day): 139.67 u/L
- LIPASE (72 h, time 3 day): 9.33 u/L
- PHOSPHORUS (72 h, time 3 day): 13.53 mg/dL
- POTASSIUM (72 h, time 3 day): 6.4 MEQ/L
- SODIUM (72 h, time 3 day): 147.03 MEQ/L
- TOTAL BILIRUBIN (72 h, time 3 day): 0.2 mg/dL
- TOTAL PROTEIN (72 h, time 3 day): 5.77 G/DL
- URIC ACID (72 h, time 3 day): 1.67 mg/dL
- ABSOLUTE BASOPHIL (120 h, time 5 day): 0 CELLS/uL
- ABSOLUTE EOSINOPHIL (120 h, time 5 day): 0 CELLS/uL
- ABSOLUTE LYMPHOCYTE (120 h, time 5 day): 17243.67 CELLS/uL
- ABSOLUTE MONOCYTE (120 h, time 5 day): 226 CELLS/uL
- ABSOLUTE SEGMENTED NEUTROPHIL (120 h, time 5 day): 1697 CELLS/uL
- BASOPHIL (120 h, time 5 day): 0%
- EOSINOPHIL (120 h, time 5 day): 0%
- ERYTHROCYTE COUNT (120 h, time 5 day): 5.34 x10E6/uL
- HEMATOCRIT (120 h, time 5 day): 34.37%
- HEMOGLOBIN (120 h, time 5 day): 13.8 G/DL
- LEUKOCYTE COUNT (120 h, time 5 day): 19.17 x10E3/uL
- LYMPHOCYTE (120 h, time 5 day): 89.67%
- MEAN CORPUSCULAR HEMOGLOBIN (120 h, time 5 day): 25.9 pg
- MEAN CORPUSCULAR HEMOGLOBIN CONCENTRATION (120 h, time 5 day): 40.17 G/DL
- MEAN CORPUSCULAR VOLUME (120 h, time 5 day): 64.4 fL
- MONOCYTE (120 h, time 5 day): 1.33%
- NEUTROPHIL (120 h, time 5 day): 9%
- NUCLEATED RED BLOOD CELLS (120 h, time 5 day): 0 /100WBC
- PLATELET COUNT (120 h, time 5 day): 1415 x10E3/uL
- ALANINE AMINOTRANSFERASE (120 h, time 5 day): 63.33 u/L
- ALBUMIN (120 h, time 5 day): 4.27 G/DL
- ALKALINE PHOSPHATASE (120 h, time 5 day): 350 u/L
- ASPARTATE AMINOTRANSFERASE (120 h, time 5 day): 91 u/L
- BLOOD UREA NITROGEN (120 h, time 5 day): 15.33 mg/dL
- CARBON DIOXIDE (120 h, time 5 day): 21.67 mmol/L
- CHLORIDE (120 h, time 5 day): 103.33 MEQ/L
- CHOLESTEROL (120 h, time 5 day): 77 mg/dL
- CREATINE PHOSPHOKINASE (120 h, time 5 day): 195 u/L
- CREATININE (120 h, time 5 day): 0.2 mg/dL
- GLUCOSE (120 h, time 5 day): 155.67 mg/dL
- LACTATE DEHYDROGENASE (120 h, time 5 day): 131 u/L
- LIPASE (120 h, time 5 day): 10.67 u/L
- PHOSPHORUS (120 h, time 5 day): 13.77 mg/dL
- POTASSIUM (120 h, time 5 day): 6.85 MEQ/L
- SODIUM (120 h, time 5 day): 145.9 MEQ/L
- TOTAL BILIRUBIN (120 h, time 5 day): 0.17 mg/dL
- TOTAL PROTEIN (120 h, time 5 day): 5.93 G/DL
- URIC ACID (120 h, time 5 day): 1.7 mg/dL
